Data: patent publication US12053446B1, “Methods for the prevention and treatment of hearing loss using Oseltamivir” (Ting Therapeutics LLC, priority 2022, dated 2024)

Legend:
[1] = tested on: inner ear cell line HEI-OC1; assay: high-throughput screen of FDA-approved drugs for cisplatin-induced cell-death protection; type: cell-based; conditions: 1,300 FDA-approved drugs screened
Excerpt: Oseltamivir is an oral widely used anti-viral drug. Significant protection by Oseltamivir against hearing loss is shown herein in doses equivalent to those approved for human use.

[2] = tested on: P3 FVB mouse cochlear explants; assay: cisplatin-induced hair cell death in P3 FVB mouse cochlear explants; type: cell-based
Method: Now referring to FIG. 1A, a representation of the chemical structure of Oseltamivir phosphate is shown. […] The explants were treated for 24 hours. […] Percent protection for compound at the tested dosages were then plotted to show dose response curves, and IC50 were calculated.
Experimental procedures for the images shown in FIG. 1C are as follows: Mice were approved by the Institutional Animal Care and Use Committee (IACUC) at the Creighton University. Inner ears were collected from the post-natal day 3 (P3) FVB mice and transferred onto a filter (Millicell, PICM03050; Millipore) soaked in culturing medium. The filter was placed in 6-well culture plates with 1.2 mL medium outside the filter. […] Cells may be maintained in culture with the aid of Matrigel as previously described in Kelley and Driver, Curr. Protoc. Neurosci.

adult P42 FVB mice [3] = assay: noise-induced hearing loss in adult mice, Oseltamivir pre-treatment before noise exposure; type: in vivo, mouse
Method: (§1) Now referring to FIG. 2A, adult P42 FVB mice began treatment with Oseltamivir administered oral gavage at 100 mg/kg body weight twice daily for three days once 45 minutes before exposure and then for two days after noise exposure. Now referring to FIG. 2B, auditory brainstem response (ABR) were recorded 14 days after noise exposure of 100 dB, 8-16 kHz octave band, for two hours. […] Control is shown as carrier. Statistical analysis was done with repeated measures ANOVA between groups. Mean±SEM, P=**<0.01, ***<0.001, compared to noise alone by two-way ANOVA with Bonferroni post-hoc test.
The experimental procedures for the data shown in FIGS. 2A-B are as follows: Animals were anesthetized with avertin. Subcutaneous needle electrodes were inserted behind the pinna (inverting), vertex of the skull (non-inverting) and base of the tail (ground). Tone bursts of 5 ms duration with 0.5 ms cosine-squared envelopes delivered at a rate of 21 stimuli per second with alternating polarity were generated using BioSigRZ software and RZ6 multi I/O processor system (Tucker-Davis Technologies, FL). Stimuli were presented as open field via a speaker (MF1: TDT, FL) placed 10 cm in front of the pinna of the animal. Evoked responses were amplified (20×), bandpass filtered (300-3,000 Hz) and average of 512 responses of 10 ms duration was recorded. […]

adult P42 FVB mice [4] = assay: noise-induced hearing loss in adult mice, Oseltamivir treatment 24 hours after noise exposure; type: in vivo, mouse
Excerpt: The experimental procedures for the data shown in FIGS. 2A-B are as follows: Animals were anesthetized with avertin. Subcutaneous needle electrodes were inserted behind the pinna (inverting), vertex of the skull (non-inverting) and base of the tail (ground). Tone bursts of 5 ms duration with 0.5 ms cosine-squared envelopes delivered at a rate of 21 stimuli per second with alternating polarity were generated using BioSigRZ software and RZ6 multi I/O processor system (Tucker-Davis Technologies, FL). Stimuli were presented as open field via a speaker (MF1: TDT, FL) placed 10 cm in front of the pinna of the animal. Evoked responses were amplified (20×), bandpass filtered (300-3,000 Hz) and average of 512 responses of 10 ms duration was recorded. Stimulus intensity was decreased in 5 dB increments, starting from 100 dB SPL to 0 dB SPL. Thresholds at 4, 5.6, 8, 16, 22.6, 32, 45.2, and 64 kHz were identified by visual inspection from stacked waveforms as the lowest level at which reproducible response could be identified. Before the start of every session, stimulus presenting speaker (MF1) was calibrated with a ¼″ microphone (PCB-378C10; PCB Piezotronics, NY) that was also placed 10 cm in front of the speaker. Similar experiments have been previously described in Rai V. et al., Sci Rep. 2020 Sep. 16; 10(1):15167.
as §1, with “3A,” for “2A,”, “beginning 24 hours following noise” for “once 45 minutes before”, “of 100 dB, 8-16 kHz octave band,” for “and then”, “hours.” for “days after noise exposure.”, “3B,” for “2B,”
Now referring to […], amplitudes of auditory Brainstem Response wave 1 from auditory brainstem response recording of FIG. 3A. The auditory Brainstem Response wave-1 amplitude represents the summed activity of the cochlear nerve. Mean wave-1 amplitudes was measured in the control and Oseltamivir-treated mice before and after noise exposure. Amplitudes from the 90 dB SPL stimuli were compared between groups using a two-factor ANOVA (group× frequency), and difference was detected between the noise alone group to Oseltamivir plus noise. at 14 days post-noise exposure.
Now referring to FIG. 3D, Distortion Product Otoacoustic Emissions (DPOAE) threshold shifts were measured in adult FVB mice 14 days after noise exposure of 100 dB, 8-16 kHz octave band, for two hours. DPOAE audiograms provide a direct indicator of cochlear sensitivity at the level of the OHC. […] Control is shown as carrier. Statistical analysis was done with repeated measures ANOVA between groups. Mean±SEM, P=**<0.01, ***<0.001, compared to noise alone by two-way ANOVA with Bonferroni post-hoc test.
Now referring to FIG. 3F, Oseltamivir administered post-noise exposure is shown to increase number of CtBP2 puncta. Number of CtBP2 puncta per IHC at the 16 kHz cochlear region were counted, data shown as mean±SEM, P=**<0.01, ***<0.001 by one-way ANOVA with Bonferroni post-hoc test, n=6-7 cochleae. An average of 4 CtBP2 puncta per IHC are restored compared to group exposed to noise without Oseltamivir treatment.
Experimental procedure for distortion product otoacoustic emissions (DPOAE) measurements, primary tones were set to generate 2f1-f2 distortion products at frequencies between 1 and 50 kHz, DPOAEs were measured for levels of f1 ranging from 10 to 80 dB SPL, with the levels of the f2 tone set 10 dB below that of the f1 tone. Similar experiments are described in Lukashkina A. V. et al., Scientific reports, July 12; 7(1), 5185. (2017). Similar Ctpb2/MyosinVI experiments are described in Liu Z et al., PLoS One. Feb. 20, 2014; 9(2):e89377 (2014).

[5] = tested on: adult 12 weeks old CBA/CaJ mice; assay: cisplatin-induced hearing loss in adult mice, multi-dose cisplatin regimen; type: in vivo, mouse
Method: Now referring to FIG. 4B, mice exposed to multi-dose cisplatin treatments show reduced reduction in wave 1 amplitude 16 kHz recording form 30-90 dB SPL, and Oseltamivir treatment at the dose of 50 mg/kg increased the 16-kHz wave-1 amplitude at 90 SPL.
Now referring to FIG. 4C, Oseltamivir (10 mg/kg and 50 mg/kg doses) increased the percent of total mice surviving 40 days after beginning of cisplatin exposure. Auditory Brainstem Response threshold shifts recorded as previously described. Similar wave-1 amplitude recordings have been described Hazlitt J et al., Med. Chem. 61, 7700-7709 (2018); Teitz et al., J. Exp. Med. 215, 1187-1203 (2018).
Now referring to FIG. 5A, confocal images of myosin-VI stained basal, middle, apical turn cochlear regions show outer hair cells of mice exposed to treatment of 50 mg/kg Oseltamivir alone or exposed to cisplatin with or without treatment of 10 or 50 mg/kg Oseltamivir. Now referring to FIG. 5B, count of outer hair cells per 160 μm for cochlear regions. Mean±SEM, P=*<0.05, **<0.01, compared to noise alone by two-way ANOVA with Bonferroni post-hoc test. N=5 cochleae counted per bar. Similar Myosin VI experiments are described in Liu Z et al., PLoS One. Feb. 20, 2014; 9(2):e89377 (2014).

What does the source list for `CCOC(=O)C1=C[C@@H](OC(CC)CC)[C@H](NC(C)=O)[C@@H](N)C1` [Oseltamivir, oseltamivir phosphate]?
hit in screen for cisplatin-induced cell-death protection [1]: one of the best hits; protection against cisplatin induced hair cell loss, phalloidin-stained middle turn images ([2]; 3 μM Oseltamivir and 150 μM Cisplatin): shows protection; IC50 ([2]; Mus musculus, Oseltamivir added 1 h before cisplatin (150 μM), 24 h, read-out: IC50 (percent protection from cisplatin-induced hair cell death)): 450 nM; LD50 ([2]; Oseltamivir alone, cochlear explants, 24 h): > 100 µM; protection, auditory brainstem response measurements (adult P42 FVB mice [3]; 100 mg/kg oral gavage twice daily for three days, first dose 45 minutes before noise (100 dB, 8-16 kHz, two hours), ABR 14 days after noise): 24-28 dB; ABR threshold shift vs noise-exposed control (adult P42 FVB mice [3]; 100 mg/kg oral twice daily, three days, starting 45 minutes before noise, 14 days after noise): Significant protection against hearing loss; ABR threshold shift vs noise-exposed control (adult P42 FVB mice [4]; 100 mg/kg oral twice daily, three days, beginning 24 hours after noise, 14 days after noise): Significant protection against hearing loss; loss of CtBP2-puncta in inner hair cells vs noise alone (adult P42 FVB mice [4]; 16 kHz cochlear region): partially restores; CtBP2 puncta per IHC restored vs noise without Oseltamivir (adult P42 FVB mice [4]; 16 kHz cochlear region, post-noise administration, average): 4; ABR wave-1 amplitude vs noise exposure only group (adult P42 FVB mice [4]; 16 kHz, 90 dB SPL, 14 days post-noise exposure): higher amplitudes; DPOAE threshold shift vs noise-exposed control (adult P42 FVB mice [4]; 14 days after noise exposure of 100 dB, 8-16 kHz, two hours): Significant protection against hearing loss; protection, auditory Brainstem Response and DPOAE measurements (adult P42 FVB mice [4]; oral, 45 minutes before noise exposure and 24 hours after noise exposure, three consecutive days): 20-28 dB; protection against noise-induced hearing loss (ABR threshold shift) (adult P42 FVB mice [4]; treatment 24 hours after noise exposure, 100, 50 and 10 mg/kg, 8, 16, 32 kHz): protects; 16-kHz wave-1 amplitude ([5]; 50 mg/kg Oseltamivir, 90 SPL, multi-dose cisplatin): increased; auditory brainstem response threshold shift vs cisplatin without treatment ([5]; 8, 16, and 32 kHz, 10 and 50 mg/kg Oseltamivir oral twice-daily, cisplatin 3 mg/kg IP, 3 cycles): lower; percent of total mice surviving ([5]; 40 days after beginning of cisplatin exposure, 10 mg/kg and 50 mg/kg): increased; outer hair cells, Myosin VI stained basal, middle, apical cochlear regions ([5]; multi-dose cisplatin regimen, 10 or 50 mg/kg Oseltamivir): preserved outer hair cells in all regions
